# Patent publication US20240342138A1, “MICROTUBULE TARGETING AGENTS” (BPGbio, Inc., priority 2023, published 2024)
# Legend:
# [1] = test system: HCT116 cells; test: Spindle assembly checkpoint activation, flow cytometry; assay type: cell-based; conditions: 300 nM; FIG. 6
# Experimental: • 1. Hct116 were grown in DMEM with 10% FBS and 1% Penicillin/Streptomycin. • 2. Cells were plated into 6 well dishes at indicated cell numbers below (i.e. plate 1=300 k cells per well) and treatment started later the same day. Asynchronous (Asynch) control cells (Plate 1 were collected 1 day after plating. Compound 1 and Nocodazole were both 300 nM, CDK1i Ro-3306 10 μM, Aurora Bi (ABi) Hesperadin 50 μM. • 3. Cells were treated with Compound 1 or Noc for 20 hours then sequentially without changing media they were treated with CDK1i or ABi for 4 more hours. Alternatively, cells were treated with Compound 1 or Noc for 20 h then washed twice with warm media and grown in fresh media for 4 hours to allow passage through mitosis into G1 as diploid cells. • 4. Note that plate 4 treatments were in general extremely toxic to cells or inconclusive.
# • 1. Collected all media and cells into the same conical tube. Centrifuged cells at 1000×g for 3 min. • 2. Aspirated off supernatant, washed with PBS. • 3. Centrifuged cells as above. • 4. Resuspended cells in cold 400 μl and while gently vortexing added 1 mL cold 100% ethanol slowly dropwise (fixes and permeabilizes) • 5. Stored at 4 degrees C. for at a minimum of 1 hour, or up to one week. • 6. […] Analyzed data with FlowJo 10 software and made graphs with GraphPad Prism.
# [2] = test system: CTG-1520 PDX tumors; test: CTG-1520 PDX tumor growth in nude mice; assay type: in vivo
# Experimental: FIG. 10A-10C show potency of Compound 1 in a patient-derived organoid model of taxane resistance. A) Overview of study design. B) CTG-1520 was implanted subcutaneously in nude mice and tumors were allowed to grow to a volume of 210 mm^3 followed by randomization of animals into three (3) groups (vehicle control, 75 mg/kg, 150 mg/kg Compound 1) with 12 animals per group. A Compound 1 solid dispersion was prepared prior to each dosing and administered by oral gavage two times a day (BID). Mean tumor volume of each group over time and the growth of tumor in each individual animal was graphed. For each individual animal of vehicle group tumor growth inhibition (TGI) % was calculated based on the tumor growth inhibition of individual tumor at each given day of the study compared to the average of the group for that given day of the study. P-values were calculated using two-tailed distribution and two-sample equal variance (homoscedastic) for each group treated with Compound 1 for each given day of the study in reference to vehicle control. ns p>0.05; *p≤0.05; **p≤0.01. C) Body weight of each individual animal was measured on days 0, 3, 6, 10, 13, and 17 and graphed using Graphpad Prism.
# In a next step, the ability of Compound 1 to inhibit the growth of CTG-1520 PDX in nude mice was assessed. CTG-1520 was implanted subcutaneously in nude mice and tumors were allowed to grow to a volume of 210 mm^3 followed by randomization of animals into three (3) groups (vehicle control; 75 mg/kg, and 150 mg/kg Compound 1) with 12 animals per group (see FIG. 10A). A Compound 1 solid dispersion was administered by oral gavage two times a day (BID). All animals, except one (1) from the vehicle control group, survived through the study (17 days). One (1) animal from the vehicle control group reached the endpoint of 2000 mm^3 prior to day 17 and was eliminated from all calculations.
# [3] = test system: colchicine binding site of tubulin; test: EBI labeling assay in MIA PaCa2 cells (Western blot); assay type: cell-based; conditions: 2 hours compound, then 2 hours 100 μM EBI, FIG. 2, FIG. 3
# Experimental: MIA PaCa2 cells were cultured in DMEM+10% FBS and 1% P/S. Cells were plated at 1.5-2×10^6 in 60 mm dishes. For drug treatments, cells were treated the day after plating with 0.1% DMSO or the compounds tested at the concentrations indicated in FIG. 2 for 2 hours.
# • Cells were treated with compounds for 2 hours at 37°, 5% CO2 (in the cell culture incubator), and then for an additional 2 hours with 100 μM EBI (with compounds present) under the same conditions. • Cells were then harvested with Trypsin and pelleted at 500 g for 3 minutes. • Cells were rinsed in 1 mL PBS and transferred to clean epi tubes. […] BCA assay plates were incubated for 15 minutes in the 37-degree incubator in the outer molecular lab. • After protein normalization (including addition of reducing Laemmli buffer from a 6× stock) samples were boiled at 95 degrees for 3 minutes and frozen for subsequent Western Blotting.
# Significance in difference of treated MIA PaCa-2 cells to 0.1% DMSO treated cells were tested by Student t test (* p<0.05; ** p<0.01; *** p<0.001).
structure (smiles),measurement,setting,value
"COc1ccccc1-c1nc(CNC(=O)c2ccccc2OC(F)F)n[nH]1 [Compound 1, 2-(difluoromethoxy)-N-[[5-(2-methoxyphenyl)-1H-1,2,4-triazol-3-yl]methyl]benzamide]","Spindle assembly checkpoint activation, mechanism",[1],a mechanism at or before microtubule-kinetochore attachment in M phase of the cell cycle
same,Tumor volume relative to vehicle control,"[2]; 75 mg/kg BID oral gavage, 17 days","reduced tumor volume relative to the vehicle control, but to a lesser extent than the 150 mg/kg dose"
same,Tumor growth inhibition,"[2]; 150 mg/kg BID oral gavage, 17 days",significant tumor growth inhibition
same,Body weight,"[2]; 75 and 150 mg/kg BID, FIG. 10C",No body weight loss
same,Formation of EBI:β-tubulin adducts,[3],"inhibited the formation of EBI (N,N′-ethylene-bis(iodoacetamide)):β-tubulin adducts"
